Here are results for one compound from patent publication US11891387B2, “Monoacylglycerol lipase modulators” (Janssen Pharmaceutica NV, priority 2020, dated 2024).

This test concerns the target human MGL from HeLa cells (Homo sapiens (Human), UniProt Q99685). Nature of the test: MGL in vitro activity assay: cleavage of [glycerol-1,3-3H]-oleyl glycerol, activated carbon filtration. Particulars: 300 nM [Glycerol-1,3-3H]-oleyl glycerol, endogenously expressed MGL from HeLa cells, one hour incubation. Format: biochemical. The procedure, abridged:
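Endogenous human MGL from HeLa cells or homogenates was incubated with compound and 300 nM [glycerol-1,3-3H]-oleyl glycerol for one hour. Released [3H]-glycerol passing an activated carbon filter was counted as the measure of activity. Screening used 10 μM compound, with IC50 top concentration set empirically.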

Sequence of human MGL from HeLa cells (Q99685 whole entry): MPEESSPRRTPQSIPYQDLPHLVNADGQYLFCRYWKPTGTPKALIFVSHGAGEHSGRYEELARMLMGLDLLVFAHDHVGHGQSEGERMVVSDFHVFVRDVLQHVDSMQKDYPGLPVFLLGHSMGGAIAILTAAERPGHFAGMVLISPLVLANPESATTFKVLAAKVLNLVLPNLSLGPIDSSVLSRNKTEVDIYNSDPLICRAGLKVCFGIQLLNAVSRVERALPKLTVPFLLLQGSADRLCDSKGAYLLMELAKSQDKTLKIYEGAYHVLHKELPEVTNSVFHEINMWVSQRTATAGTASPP

`COc1cccc(C(=O)N2[C@@H]3CCC[C@H]2c2nn(C)c(-c4cc(C(F)(F)F)nn4C)c2C3)c1C` (stereo in doubt) [Example 74, (3-Methoxy-2-methylphenyl)((5R,9S)-2-methyl-3-(1-methyl-3-(trifluoromethyl)-1H-pyrazol-5-yl)-4,5,6,7,8,9-hexahydro-2H-5,9-epiminocycloocta[c]pyrazol-10-yl)methanone] came in with an IC50 of 19 nM.
